Data taken from US20240041042A1, “1-(PYRIDYL)-5-AZINYLPYRAZOLE DERIVATIVES, AND THEIR USE FOR CONTROL OF UNDESIRED PLANT GROWTH” (Bayer Aktiengesellschaft, priority 2020, published 2024).
Where two headings read alike, the source gives them in different places.

Key:
Type in all cases: in vivo
[1] = system: Pharbitis purpurea (PHBPU); experiment: Post-emergence herbicidal action against PHBPU
Outline: (§1)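 Rates were 320 g/ha or below, applied as aqueous WP/EC spray with 0.5% additive (600 l/ha) onto one-leaf-stage plants. About 3 weeks later in the greenhouse, damage was scored visually against untreated plants on a 0–100% scale, where 100% means plants died.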

[2] = system: Verconica persica (VERPE); experiment: Post-emergence herbicidal action against VERPE; settings: 320 g/ha, VERPE
Outline: as §1

[3] = system: Setaria viridis (SETVI); experiment: Pre-emergence herbicidal action against SETVI; settings: dosage 320 g/ha
Outline: (§2)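 Dosages of 320 g/ha or less; pre-emergence; WP or EC in aqueous spray, 0.5% additive, 600 l/ha; greenhouse; visual % effect after ~3 wk relative to control pots.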

[4] = system: Viola tricolor (VIOTR); experiment: Pre-emergence herbicidal action against VIOTR
Outline: as §2

[5] = system: Setaria viridis (SETVI); experiment: Post-emergence herbicidal action against SETVI
Outline: as §1

[6] = system: Viola tricolor (VIOTR); experiment: Post-emergence herbicidal action against VIOTR
Outline: as §1

[7] = system: Matricaria inodora (MATIN); experiment: Pre-emergence herbicidal action against MATIN
Outline: as §2

[8] = system: Matricaria inodora (MATIN); experiment: Post-emergence herbicidal action against MATIN
Outline: as §1

[9] = system: Lolium rigidum (LOLRI); experiment: Post-emergence herbicidal action against LOLRI; settings: dosage 320 g/ha
Outline: as §1

[10] = system: Echinochloa crus-galli (ECHCG); experiment: Pre-emergence herbicidal action against ECHCG; settings: dosage 320 g/ha
Outline: as §2

[11] = system: Amaranthus retroflexus (AMARE); experiment: Pre-emergence herbicidal action against AMARE; settings: visual scoring after about 3 weeks vs untreated controls
Outline: as §2

[12] = system: Avena fatua (AVEFA); experiment: Post-emergence herbicidal action against AVEFA; settings: 320 g/ha, visual rating about 3 weeks after treatment
Outline: as §1

[13] = system: Abutilon theophrasti (ABUTH); experiment: Pre-emergence herbicidal action against ABUTH; settings: Dosage column 320 g/ha (title prints 3200 g/ha); scored visually after about 3 weeks; 100% = plants have died
Outline: as §2

[14] = system: Polygonum convolvulus (POLCO); experiment: Pre-emergence herbicidal action against POLCO
Outline: as §2

[15] = system: Amaranthus retroflexus (AMARE); experiment: Post-emergence herbicidal action against AMARE
Outline: as §1

[16] = system: Polygonum convolvulus (POLCO); experiment: Post-emergence herbicidal action against POLCO
Outline: as §1

[17] = system: Alopecurus myosuroides (ALOMY); experiment: Pre-emergence herbicidal action against ALOMY; settings: 320 g/ha; scored visually after about 3 weeks; 100% = plants have died
Outline: as §2

[18] = system: Glycine max (GLXMA); settings: pre-emergence, 80 g/ha, crop plant compatibility, in comparison to untreated controls
Outline: (§3)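 Crop injury rated visually in percent against untreated plants roughly 3 weeks after treatment (0% no effect, 100% plants dead). Compounds, as WP or EC with 0.5% additive in 600 l/ha water, were applied to the covering soil right after sowing; greenhouse growth. Suffixes a, b, c denote different dosages.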

[19] = system: Triticum aestivum (TRZAS); settings: pre-emergence, 80 g/ha, crop plant compatibility, in comparison to untreated controls
Outline: as §3

[20] = system: Echinochloa crus-galli (ECHCG); experiment: Post-emergence herbicidal action against ECHCG
Outline: as §1

[21] = system: Avena fatua (AVEFA); experiment: Pre-emergence herbicidal action against AVEFA; settings: 320 g/ha, visual scoring after about 3 weeks vs untreated controls
Outline: as §2

[22] = system: Lolium rigidum (LOLRI); experiment: Pre-emergence herbicidal action against LOLRI; settings: dosage 320 g/ha
Outline: as §2

[23] = system: Abutilon theophrasti (ABUTH); experiment: Post-emergence herbicidal action against ABUTH; settings: visual rating about 3 weeks after treatment vs untreated controls (100% = plants have died, 0% = like control plants)
Outline: as §1

[24] = system: Oryza sativa (ORYSA); settings: crop plant compatibility
Outline: (§4)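 Test crops were treated 2 to 3 weeks after sowing, once they reached one leaf, by spraying compound in water with 0.5% additive at 600 l/ha. Visual scoring compared them with untreated controls roughly 3 weeks on, and appendices a, b and c denote different doses.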

[25] = system: Zea mays (ZEAMX); settings: crop plant compatibility, 80 g/ha, effect vs untreated controls
Outline: as §4

[26] = system: Digitaria sanguinalis (DIGSA); experiment: Post-emergence herbicidal action against DIGSA; settings: 320 g/ha, visual rating about 3 weeks after treatment
Outline: as §1

[27] = system: Alopecurus myosuroides (ALOMY); experiment: Post-emergence herbicidal action against ALOMY; settings: 320 g/ha, visual rating about 3 weeks after treatment vs untreated controls (100% = plants have died, 0% = like control plants)
Outline: as §1

[28] = system: Digitaria sanguinalis (DIGSA); experiment: Pre-emergence herbicidal action against DIGSA; settings: dosage 320 g/ha
Outline: as §2

[29] = system: Zea mays (ZEAMX); settings: pre-emergence, 80 g/ha, crop plant compatibility, in comparison to untreated controls
Outline: as §3

[30] = system: Brassica napus (BRSNW); settings: 80 g/ha, crop plant compatibility, in comparison to untreated controls
Outline: as §3

[31] = system: Verconica persica (VERPE); experiment: Pre-emergence herbicidal action against VERPE; settings: dosage 320 g/ha
Outline: as §2

[32] = system: Oryza sativa (ORYSA); settings: pre-emergence, 80 g/ha, crop plant compatibility, in comparison to untreated controls
Outline: as §3

[33] = 320 g/ha, visual rating about 3 weeks after treatment
[34] = 80 g/ha, effect in comparison to untreated controls

Row | Pre-emergence action against GLXMA in % [18] [%] | Post-emergence action against ORYSA in % [24, 34] [%] | Pre-emergence action against ZEAMX in % [29] [%] | Pre-emergence action against BRSNW in % [30] [%] | SMILES | Post-emergence action against PHBPU in % ([1]; dosage 80 g/ha) [%] | Post-emergence action against PHBPU in % ([1]; dosage 320 g/ha) [%] | Pre-emergence action against SETVI in % [3] [%] | Pre-emergence action against VIOTR in % ([4]; 320 g/ha, Viola tricolor) [%] | Pre-emergence action against VIOTR in % ([4]; dosage 80 g/ha) [%] | Post-emergence action against VIOTR in % ([6]; 80 g/ha) [%] | Post-emergence action against VIOTR in % ([6]; 320 g/ha) [%] | Post-emergence action against LOLRI in % [9] [%] | Pre-emergence action against AMARE in % ([11]; 320 g/ha) [%] | Post-emergence action against AVEFA in % [12] [%] | Pre-emergence action against POLCO in % ([14]; dosage 320 g/ha) [%] | Post-emergence action against AMARE in % [15, 33] [%] | Post-emergence action against POLCO in % ([16]; dosage 320 g/ha) [%] | Pre-emergence action against ALOMY [17] [%] | Pre-emergence action against AVEFA in % [21] [%] | Pre-emergence action against LOLRI in % [22] [%] | also measured
1 | 0 |  |  |  | CCOC(=O)CSc1nn(-c2ccccn2)c(-c2cncc(F)c2)c1Cl [Example I-183] | 80 | 90 | 90 | 100 | 80 | 90 | 90 | 90 | 100 | 90 | 90 | 90 | 90 | 80 | 80 | 90 | Post-emergence action against VERPE in % [2]: 90%; Post-emergence action against SETVI in % ([5]; dosage 80 g/ha): 90%; Post-emergence action against SETVI in % ([5]; dosage 320 g/ha): 90%; Pre-emergence action against MATIN in % ([7]; dosage 80 g/ha): 90%; Pre-emergence action against MATIN in % ([7]; dosage 320 g/ha): 90%; Post-emergence action against MATIN in % ([8]; dosage 80 g/ha): 80%; Post-emergence action against MATIN in % ([8]; dosage 320 g/ha): 80%; Pre-emergence action against ECHCG in % [10]: 100%; Pre-emergence action against AMARE in % ([11]; 80 g/ha): 80%; Pre-emergence action against ABUTH [13]: 80%; Pre-emergence action against POLCO in % ([14]; dosage 80 g/ha): 80%; Post-emergence action against AMARE in % ([15]; 80 g/ha, visual rating about 3 weeks after treatment vs untreated controls (100% = plants have died, 0% = like control plants)): 90%; Pre-emergence action against TRZAS in % [19]: 0%; Post-emergence action against ECHCG in % ([20]; dosage 80 g/ha): 90%; Post-emergence action against ECHCG in % ([20]; dosage 320 g/ha): 90%; Post-emergence action against ABUTH in % ([23]; 80 g/ha): 80%; Post-emergence action against ABUTH in % ([23]; 320 g/ha): 80%
2 | 0 | 0 | 0 | 20 | COC(=O)[C@@H](C)Oc1nn(-c2ccccn2)c(-c2ccc(Cl)nc2)c1Br [Example I-242] | 80 | 80 |  | 100 |  | 80 | 80 | 80 | 100 | 80 | 80 | 80 | 80 | 80 |  | 90 | Post-emergence action against ORYSA in % ([24]; 320 g/ha, effect in comparison to untreated controls): 0%; Post-emergence action against ZEAMX in % [25]: 10%; Post-emergence action against DIGSA in % [26]: 80%; Post-emergence action against ALOMY in % [27]: 80%; Post-emergence action against POLCO in % ([16]; dosage 80 g/ha): 80%; Pre-emergence action against DIGSA in % [28]: 90%
3 | 0 | 0 | 20 | 0 | COC(=O)[C@@H](C)Oc1nn(-c2cccnc2F)c(-c2ccc(F)nc2)c1Br [II-36] |  |  | 80 | 100 | 80 | 80 |  |  | 100 |  |  |  |  | 100 | 80 | 80 | Post-emergence action against ORYSA in % ([24]; 20 g/ha, effect vs untreated controls): 0%; Pre-emergence action against VERPE in % [31]: 80%; Pre-emergence action against DIGSA in % [28]: 100%; Pre-emergence action against ORYSA in % [32]: 0%
4 | 0 | 0 | 20 | 0 | CCOC(=O)C(C)Oc1nn(-c2ccccn2)c(-c2ccc(F)nc2)c1Br (racemic) [Example I-58] |  | 80 |  | 80 |  |  |  | 80 |  | 90 | 90 |  |  | 90 | 80 | 80 | Post-emergence action against ZEAMX in % [25]: 20%; Post-emergence action against ALOMY in % [27]: 90%; Pre-emergence action against ORYSA in % [32]: 0%; Post-emergence action against ECHCG in % ([20]; dosage 320 g/ha): 80%
